In brackets after ≈: the same amount, converted by molar mass.
Columns and labels:
[1] = test system: S. aureus (CiproS); test: In vitro MIC, agar dilution; format: cell-based; settings: Staphylococcus aureus
[2] = test system: S. aureus (CiproR); test: In vitro MIC, agar dilution; format: cell-based; settings: Staphylococcus aureus
[3] = test system: S. epidermidis (CiproS); test: In vitro MIC, agar dilution; format: cell-based; settings: Staphylococcus epidermidis
[4] = test system: S. epidermidis (CiproR); test: In vitro MIC, agar dilution; format: cell-based; settings: Staphylococcus epidermidis
[5] = test system: S. pneumoniae (PenS); test: In vitro MIC, agar dilution; format: cell-based; settings: Streptococcus pneumoniae
[6] = test system: S. pneumoniae (PenR); test: In vitro MIC, agar dilution; format: cell-based; settings: Streptococcus pneumoniae
[7] = test system: S. pneumoniae (CiproR); test: In vitro MIC, agar dilution; format: cell-based; settings: Streptococcus pneumoniae, read-out: MIC Range
[8] = test system: S. pyogenes; test: In vitro MIC, agar dilution; format: cell-based; settings: Streptococcus pyogenes
[9] = test system: E. faecium (CiproS); test: In vitro MIC, agar dilution; format: cell-based; settings: Enterococcus faecium
[10] = test system: E. faecium (VanS); test: In vitro MIC, agar dilution; format: cell-based; settings: Enterococcus faecium
[11] = test system: E. faecalis (VanS); test: In vitro MIC, agar dilution; format: cell-based; settings: Enterococcus faecalis
[12] = test system: Enterococcus spp. (VanR); test: In vitro MIC, agar dilution; format: cell-based; settings: Enterococcus
[13] = test system: E. coli; test: In vitro MIC, agar dilution; format: cell-based; settings: Escherichia coli, 25 isolates
Experimental: (§1) Each plate was inoculated with 1:100 (or 1:10 for slow-growing strains, primarily Micrococcus and Streptococcus) dilutions of up to 32 different microorganisms, using a Steers replicator block calibrated to deliver approximately 10^4 colony forming units (CFU's). The inoculated plates were incubated at from about 35° C. to about 37 ° C. for approximately 20-24 hours. In addition, a control plate using BHI agar containing no test compound was prepared and incubated at the beginning and at the end of each test. The quinolone antibacterial ciprofloxacin was used as a control ("Cntl").
(§2) The numbers below the microorganism species indicate the nunbers of isolates tested. […] The MIC is defined as the lowest concentration of test compound yielding no growth (a slight haze or sparsely isolated colonies at the inoculum spot) as compared to the growth control containing no test compound.

[14] = test system: Salmonella spp.; test: In vitro MIC, agar dilution; format: cell-based; settings: 23 isolates
Experimental: as §1, §2

[15] = test system: Shigella spp.; test: microbe, parasite or virus in culture; format: cell-based; settings: read-out: MIC Range
[16] = test system: Klebsiella spp.; test: In vitro MIC, agar dilution; format: cell-based; settings: Klebsiella
[17] = test system: C. freundii; test: In vitro MIC, agar dilution; format: cell-based; settings: Citrobacter freundii
[18] = test system: P. mirabilis; test: In vitro MIC, agar dilution; format: cell-based; settings: Proteus mirabilis
[19] = test system: Providencia spp.; test: In vitro MIC, agar dilution; format: cell-based
[20] = test system: Enterobacter spp.; test: In vitro MIC, agar dilution; format: cell-based; settings: Enterobacter
[21] = test system: P. aeruginosa (CiproS); test: In vitro MIC, agar dilution; format: cell-based; settings: Pseudomonas aeruginosa
[22] = test system: P. aeruginosa (CiproR); test: In vitro MIC, agar dilution; format: cell-based
[23] = test system: B. fragilis; test: In vitro MIC, agar dilution; format: cell-based; settings: Bacteroides fragilis
[24] = test system: C. difficile; test: In vitro MIC, agar dilution; format: cell-based; settings: Clostridioides difficile
[25] = test system: H. influenzae; test: In vitro MIC, agar dilution; format: cell-based; settings: Haemophilus influenzae
[26] = test system: M. catarrhalis; test: In vitro MIC, agar dilution; format: cell-based; settings: Moraxella catarrhalis
[27] = test system: Legionella spp.; test: microbe, parasite or virus in culture; format: cell-based; settings: Legionella
[28] = test system: M. pneumoniae; test: In vitro MIC, agar dilution; format: cell-based; settings: Mycoplasmoides pneumoniae, read-out: MIC Range
[29] = test system: N. gonorrhoeae; test: In vitro MIC, agar dilution; format: cell-based; settings: Neisseria gonorrhoeae
[30] = test system: H. pylori; test: In vitro MIC, agar dilution; format: cell-based; settings: Helicobacter pylori
[31] = test system: M. avium; test: In vitro MIC, agar dilution; format: cell-based; settings: Mycobacterium avium
[32] = test system: ciprofloxacin resistant staphylococcal strains; test: In vitro MIC, agar dilution (summary in text); format: cell-based
[33] = test system: staphylococcus aureus NTCC 10649; test: In vivo efficacy, mouse infection (ED50); settings: Staphylococcus aureus, NTCC10649, in Mus musculus, 168 h
[34] = test system: Streptococcus pneumoniae 6303; test: In vivo efficacy, mouse infection (ED50); settings: Streptococcus pneumoniae, 6303, in Mus musculus, 168 h
[35] = test system: Escherichia coli JUHL; test: In vivo efficacy, mouse infection (ED50); settings: Escherichia coli, in Mus musculus, 168 h

O=C(O)c1cn(C2CC2)c2cc(N3CCNCC3)c(F)cc2c1=O [Ciprofloxacin, ciprofloxacin]
MIC50 [1]: 0.25 µg/mL (≈ 0.754 µM)
MIC90 [1]: 0.5 µg/mL (≈ 1.51 µM)
MIC ([1]; read-out: MIC Range): 0.06 to 0.5 µg/mL (≈ 0.181 to 1.51 µM)
MIC50 [2]: 32 µg/mL (≈ 96.6 µM)
MIC90 [2]: 128 µg/mL (≈ 386 µM)
MIC50 [3]: 0.25 µg/mL (≈ 0.754 µM)
MIC90 [3]: 0.25 µg/mL (≈ 0.754 µM)
MIC ([3]; read-out: MIC Range): 0.06 to 0.5 µg/mL (≈ 0.181 to 1.51 µM)
MIC50 [4]: 16 µg/mL (≈ 48.3 µM)
MIC90 [4]: > 128 µg/mL
MIC50 [5]: 2 µg/mL (≈ 6.04 µM)
MIC90 [5]: 4 µg/mL (≈ 12.1 µM)
MIC ([5]; read-out: MIC Range): 1 to 8 µg/mL (≈ 3.02 to 24.1 µM)
MIC50 [6]: 2 µg/mL (≈ 6.04 µM)
MIC90 [6]: 2 µg/mL (≈ 6.04 µM)
MIC ([6]; read-out: MIC Range): 1 to 2 µg/mL (≈ 3.02 to 6.04 µM)
MIC [7]: 4 to 8 µg/mL (≈ 12.1 to 24.1 µM)
MIC50 [8]: 0.5 µg/mL (≈ 1.51 µM)
MIC90 [8]: 1 µg/mL (≈ 3.02 µM)
MIC ([8]; read-out: MIC Range): 0.25 to 4 µg/mL (≈ 0.754 to 12.1 µM)
MIC50 [9]: 2 µg/mL (≈ 6.04 µM)
MIC90 [9]: 4 µg/mL (≈ 12.1 µM)
MIC ([9]; read-out: MIC Range): 2 to 4 µg/mL (≈ 6.04 to 12.1 µM)
MIC50 [10]: 4 µg/mL (≈ 12.1 µM)
MIC90 [10]: 4 µg/mL (≈ 12.1 µM)
MIC ([10]; read-out: MIC Range): 1 to 4 µg/mL (≈ 3.02 to 12.1 µM)
MIC50 [11]: 2 µg/mL (≈ 6.04 µM)
MIC90 [11]: 4 µg/mL (≈ 12.1 µM)
MIC ([11]; read-out: MIC Range): 1 to 4 µg/mL (≈ 3.02 to 12.1 µM)
MIC50 [12]: 4 µg/mL (≈ 12.1 µM)
MIC90 [12]: 4 µg/mL (≈ 12.1 µM)
MIC [13]: 0.008 to 0.03 µg/mL (≈ 0.0241 to 0.0905 µM)
MIC50 ([13]; read-out: MIC50): 0.03 µg/mL (≈ 0.0905 µM)
MIC90 ([13]; read-out: MIC90): 0.03 µg/mL (≈ 0.0905 µM)
MIC [14]: 0.004 to 0.5 µg/mL (≈ 0.0121 to 1.51 µM)
MIC50 ([14]; read-out: MIC50): 0.03 µg/mL (≈ 0.0905 µM)
MIC90 ([14]; read-out: MIC90): 0.03 µg/mL (≈ 0.0905 µM)
MIC [15]: 0.008 to 0.015 µg/mL (≈ 0.0241 to 0.0453 µM)
MIC50 [16]: 0.06 µg/mL (≈ 0.181 µM)
MIC90 [16]: 0.12 µg/mL (≈ 0.362 µM)
MIC ([16]; read-out: MIC Range): 0.004 to 0.5 µg/mL (≈ 0.0121 to 1.51 µM)
MIC50 [17]: 0.015 µg/mL (≈ 0.0453 µM)
MIC90 [17]: 0.12 µg/mL (≈ 0.362 µM)
MIC ([17]; read-out: MIC Range): 0.004 to 0.5 µg/mL (≈ 0.0121 to 1.51 µM)
MIC50 [18]: 0.015 µg/mL (≈ 0.0453 µM)
MIC90 [18]: 0.03 µg/mL (≈ 0.0905 µM)
MIC ([18]; read-out: MIC Range): 0.015 to 0.06 µg/mL (≈ 0.0453 to 0.181 µM)
MIC50 ([19]; Providencia): 0.03 µg/mL (≈ 0.0905 µM)
MIC90 ([19]; Providencia): 0.25 µg/mL (≈ 0.754 µM)
MIC ([19]; Providencia spp., 28 isolates, read-out: MIC Range): 0.015 to 0.25 µg/mL (≈ 0.0453 to 0.754 µM)
MIC50 [20]: 0.015 µg/mL (≈ 0.0453 µM)
MIC90 [20]: 0.03 µg/mL (≈ 0.0905 µM)
MIC ([20]; read-out: MIC Range): 0.008 to 0.12 µg/mL (≈ 0.0241 to 0.362 µM)
MIC50 [21]: 0.12 µg/mL (≈ 0.362 µM)
MIC90 [21]: 0.5 µg/mL (≈ 1.51 µM)
MIC ([21]; read-out: MIC Range): 0.06 to 2 µg/mL (≈ 0.181 to 6.04 µM)
MIC50 ([22]; Pseudomonas aeruginosa): 64 µg/mL (≈ 193 µM)
MIC90 ([22]; Pseudomonas aeruginosa): 128 µg/mL (≈ 386 µM)
MIC90 ([22]; ciprofloxacin resistant P. aeruginosa strains): 128 (g/mL
MIC50 [23]: 8 µg/mL (≈ 24.1 µM)
MIC90 [23]: 16 µg/mL (≈ 48.3 µM)
MIC ([23]; read-out: MIC Range): 4 to 32 µg/mL (≈ 12.1 to 96.6 µM)
MIC50 [24]: 16 µg/mL (≈ 48.3 µM)
MIC90 [24]: 16 µg/mL (≈ 48.3 µM)
MIC ([24]; read-out: MIC Range): 16 µg/mL (≈ 48.3 µM)
MIC50 [25]: 0.015 µg/mL (≈ 0.0453 µM)
MIC90 [25]: 0.015 µg/mL (≈ 0.0453 µM)
MIC ([25]; read-out: MIC Range): 0.008 to 0.015 µg/mL (≈ 0.0241 to 0.0453 µM)
MIC50 [26]: 0.03 µg/mL (≈ 0.0905 µM)
MIC90 [26]: 0.06 µg/mL (≈ 0.181 µM)
MIC ([26]; read-out: MIC Range): 0.008 to 0.06 µg/mL (≈ 0.0241 to 0.181 µM)
MIC50 [27]: 0.25 µg/mL (≈ 0.754 µM)
MIC90 [27]: 0.5 µg/mL (≈ 1.51 µM)
MIC ([27]; read-out: MIC Range): 0.12 to 0.5 µg/mL (≈ 0.362 to 1.51 µM)
MIC [28]: 1 to 2 µg/mL (≈ 3.02 to 6.04 µM)
MIC50 [29]: 0.008 µg/mL (≈ 0.0241 µM)
MIC90 [29]: 0.03 µg/mL (≈ 0.0905 µM)
MIC ([29]; read-out: MIC Range): 0.004 to 0.12 µg/mL (≈ 0.0121 to 0.362 µM)
MIC50 [30]: 0.5 µg/mL (≈ 1.51 µM)
MIC90 [30]: 0.5 µg/mL (≈ 1.51 µM)
MIC ([30]; read-out: MIC Range): 0.12 to 0.5 µg/mL (≈ 0.362 to 1.51 µM)
MIC50 [31]: 16 µg/mL (≈ 48.3 µM)
MIC90 [31]: 32 µg/mL (≈ 96.6 µM)
MIC90 [32]: > 128 µg/mL
ED50 ([33]; po): 18.3 mg/kg
ED50 ([33]; sc): 3.1 mg/kg
ED50 ([34]; po): > 100 mg/kg
ED50 ([34]; sc): > 50 mg/kg
ED50 ([35]; po): 4.1 mg/kg
ED50 ([35]; sc): 1 mg/kg

Reference: US5977133A, “Pyridone antibiotic with improved safety profile” (priority 1998, dated 1999)
